Tests used:
Assay in all cases: -log10 GI50 (growth inhibition 50%) (-log10(M)); higher = more potent growth inhibition
CAL120 = system: CAL120
Summary of the method: (§1)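 Breast cancer cell lines were treated with each compound for 72 hours at nine doses in 1:5 serial dilution, in triplicate, and luminescence was read against a time-zero plate. A Gompertz curve was fitted to the dose-response data by nonlinear least squares to obtain GI50, the molar concentration giving the set level of growth inhibition, which is reported as its negative logarithm. The logarithm is base 10, and values equal to the top dose carry a < qualifier.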

EFM192C = system: EFM192C
Summary of the method: as §1

EFM19 = system: EFM19
Summary of the method: as §1

CAL148 = system: CAL148
Summary of the method: as §1

EFM192B = system: EFM192B
Summary of the method: as §1

CAL851 = system: CAL851
Summary of the method: as §1

JIMT1 = system: JIMT1
Summary of the method: as §1

EFM192A = system: EFM192A
Summary of the method: as §1

SUM44PE = system: SUM44PE
Summary of the method: as §1

21PT = system: 21PT
Summary of the method: as §1

Row | Compound | -log10 GI50 (CAL120) | -log10 GI50 (EFM192C) | -log10 GI50 (EFM19) | -log10 GI50 (CAL148) | -log10 GI50 (EFM192B) | -log10 GI50 (CAL851) | -log10 GI50 (JIMT1) | -log10 GI50 (EFM192A) | -log10 GI50 (SUM44PE) | -log10 GI50 (21PT)
1 | CC(=O)NCC(=O)N1[C@@H]2CC[C@H]1c1ccc(Nc3ncc(C(F)(F)F)c(NC4CCC4)n3)cc12 | 5.76 | 5.07 | 5.63 | 7.04 | 5.28 | 5.04 | 5.41 | 5.09 | – | –
2 | CC(=O)Nc1cccc(-n2c(=O)n(C3CC3)c(=O)c3c(Nc4ccc(I)cc4F)n(C)c(=O)c(C)c32)c1 | – | – | – | – | – | – | – | – | 6.91 | –
3 | CCC[C@H](N[C@H]1CCc2cc(F)cc(F)c2C1)C(=O)Nc1cn(C(C)(C)CNCC(C)(C)C)cn1 | 4.76 | 4.46 | 4.79 | 4.91 | 4.8 | 5.29 | 4.7 | 4.58 | – | –
4 | COc1ccc(-c2cc3c(C)nc(N)nc3n([C@H]3CC[C@H](OCCO)CC3)c2=O)cn1 | 6.05 | – | 7.42 | 6.35 | 6.73 | 7.4 | 6.46 | 6.92 | – | –
5 | Cn1ncc(Cl)c1-c1cc(C(=O)N[C@H](CN)Cc2ccc(F)c(F)c2)oc1Cl | 5.13 | – | 7.42 | 8.06 | 6.63 | 5.12 | 5.74 | 7.53 | – | 5.03
6 | C=CCNC1=C2C[C@@H](C)C[C@H](OC)[C@H](O)[C@@H](C)/C=C(\C)[C@H](OC(N)=O)[C@@H](OC)/C=C\C=C(/C)C(=O)NC(=CC1=O)C2=O [17-AAG] | – | – | – | – | – | – | – | – | 8.84 | –
7 | CO[C@H]1C[C@@H]2CC[C@@H](C)[C@@](O)(O2)C(=O)C(=O)N2CCCC[C@H]2C(=O)O[C@H]([C@H](C)C[C@@H]2CC[C@@H](O)[C@H](OC)C2)CC(=O)[C@H](C)/C=C(\C)[C@@H](O)[C@@H](OC)C(=O)[C@H](C)C[C@H](C)/C=C/C=C/C=C/1C [Rapamycin] | – | – | – | – | – | – | – | – | 9.26 | –
8 | CC/C(=C(\c1ccccc1)c1ccc(OCCN(C)C)cc1)c1ccccc1 [Tamoxifen] | – | – | – | – | – | – | – | – | 7.03 | –
9 | CC[C@@]1(O)C(=O)OCc2c1cc1n(c2=O)Cc2cc3c(CN(C)C)c(O)ccc3nc2-1 [Topotecan] | – | – | – | – | – | – | – | – | 6.43 | –
